Earlier results in patent US20120142546A1, “HYPOMETHYLATED GENES IN CANCER” (THE JOHNS HOPKINS UNIVERSITY, priority 2007, published 2012).

Tested on: cancers involving the lung, esophagus, or pleura

Question: Which “NY-ESO-1 and MAGEA3 expression in treated patients” value does the source give for `Nc1ncn([C@H]2C[C@H](O)[C@@H](CO)O2)c(=O)n1` [5-aza-2′-deoxycytidine] here?
Answer: Its value is “upregulated in a proportion of patients”.
